Laboratory results taken from patent publication US20250034216A1, “STEREOSELECTIVE COVALENT LIGANDS FOR ONCOGENIC AND IMMUNOLOGICAL PROTEINS” (The Scripps Research Institute, priority 2021, published 2025).

target: T1, NSD2_C1018 (Homo sapiens, UniProt O96028); experiment: IA-DTB cysteine engagement; assay type: binding; settings: 22Rv1 cells, 20 μM probe, 1 h, relative to DMSO
T1 construct: endogenous in cells; host or cells: 22Rv1
T1 sequence (O96028 1-1365): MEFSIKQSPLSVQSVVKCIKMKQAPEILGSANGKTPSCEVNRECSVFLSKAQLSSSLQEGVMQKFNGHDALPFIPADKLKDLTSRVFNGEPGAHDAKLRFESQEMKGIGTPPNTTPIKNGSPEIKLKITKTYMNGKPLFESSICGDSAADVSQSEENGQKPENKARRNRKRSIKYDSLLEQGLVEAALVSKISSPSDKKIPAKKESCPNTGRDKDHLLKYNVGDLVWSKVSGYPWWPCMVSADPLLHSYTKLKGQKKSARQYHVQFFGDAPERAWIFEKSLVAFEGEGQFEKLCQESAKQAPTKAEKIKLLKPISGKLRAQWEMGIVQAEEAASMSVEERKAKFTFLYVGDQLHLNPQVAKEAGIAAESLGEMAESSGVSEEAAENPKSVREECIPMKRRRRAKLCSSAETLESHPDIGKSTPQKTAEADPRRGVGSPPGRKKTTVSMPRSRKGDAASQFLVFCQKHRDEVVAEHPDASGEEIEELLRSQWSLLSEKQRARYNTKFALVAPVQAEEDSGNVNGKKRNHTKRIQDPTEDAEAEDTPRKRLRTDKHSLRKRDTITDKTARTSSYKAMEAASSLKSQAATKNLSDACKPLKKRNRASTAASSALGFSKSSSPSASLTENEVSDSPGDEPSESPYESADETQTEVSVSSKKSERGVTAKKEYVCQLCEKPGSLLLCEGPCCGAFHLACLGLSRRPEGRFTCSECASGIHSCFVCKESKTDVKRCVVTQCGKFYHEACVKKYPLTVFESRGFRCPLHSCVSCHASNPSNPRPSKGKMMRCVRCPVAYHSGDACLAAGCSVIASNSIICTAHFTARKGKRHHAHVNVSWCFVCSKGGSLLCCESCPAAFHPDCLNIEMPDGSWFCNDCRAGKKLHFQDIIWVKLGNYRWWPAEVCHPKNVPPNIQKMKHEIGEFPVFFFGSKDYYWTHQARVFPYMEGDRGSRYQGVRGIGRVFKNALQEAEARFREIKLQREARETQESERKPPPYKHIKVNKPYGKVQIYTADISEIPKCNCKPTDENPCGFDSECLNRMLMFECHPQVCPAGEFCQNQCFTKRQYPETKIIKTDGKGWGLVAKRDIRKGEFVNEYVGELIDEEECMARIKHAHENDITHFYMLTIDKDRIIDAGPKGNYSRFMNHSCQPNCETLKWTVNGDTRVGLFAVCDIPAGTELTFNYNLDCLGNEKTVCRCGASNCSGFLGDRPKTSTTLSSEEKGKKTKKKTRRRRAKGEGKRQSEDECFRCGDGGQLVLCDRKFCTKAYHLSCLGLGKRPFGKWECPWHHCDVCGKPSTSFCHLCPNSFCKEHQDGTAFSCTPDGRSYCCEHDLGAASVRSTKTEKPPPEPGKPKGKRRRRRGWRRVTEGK
Experimental: Sample preparation: Cells (adherent: 15 cm dishes, suspension: 2 million cells/mL) were treated with electrophilic probes in situ for indicated times and concentrations, washed with ice-cold PBS, and flash frozen in liquid nitrogen. Cell pellets were lysed by sonication (8 pulses, 40% power) in 500 μL ice-cold PBS supplemented with cOmplete protease inhibitors (1 tablet/10 mL of PBS). Whole cell lysates protein content was measured using a standard DC protein assay (Bio-Rad) and 500 μL (2 mg/mL protein content) were treated with 5 μL of 10 mM 1A-DTB (in DMSO) for 1 h at ambient temperature with occasional vortexing. Samples were methanol-chloroform precipitated with the addition of 500 μL ice-cold MeOH and 200 μL CHCl3, vortexed, and centrifuged (10 min, 10,000 g). Without disrupting the protein disk, both top and bottom layers were aspirated and the protein disk was washed with 1 mL ice-cold MeOH and centrifuged (10 min, 10,000 g). The pellets were allowed to air dry, and then re-suspended in 90 μL buffer (9 M urea, 10 mM DTT, 50 mM TEAB pH 8.5). Samples were reduced by heating at 65 C for 20 minutes and water bath sonicated as needed to resuspend the protein pellets, followed by alkylation via addition of 10 μL (500 mM) iodoacetamide and incubated at 37 C for 30 min with shaking. Samples were briefly centrifuged, and probe sonicated once more to ensure complete resuspension, and then diluted with 300 μL buffer (50 mM TEAB pH 8.5) to reach final concentration of 2 M urea. Trypsin (4 μL of 0.25 μg/μL in trypsin resuspension buffer with 25 mM CaCl2)) was added to each sample and digested at 37 C for 2 h to overnight. Digested samples were then diluted with 300 μL wash buffer (50 mM TEAB pH 8.5, 150 mM NaCl, 0.2% NP-40) containing streptavidin-agarose beads (50 μL of 50% slurry in wash buffer) and were rotated at room temperature for 2 hours. Enriched samples were pelleted by centrifugation (2000 g, 2 min) and transferred to BioSpin columns and washed (3×1 mL wash buffer, 3×1 mL PBS, 3×1 mL water). Enriched peptides were eluted by 300 μL 50% acetonitrile with 0.1% formic acid and eluate was evaporated to dryness via speedvac. IA-DTB labeled and enriched peptides were resuspended in 100 μL EPPS buffer (200 mM, pH 8.0) with 30% acetonitrile, vortexed, and water bath sonicated. Samples were TMT labeled with 3 μL of corresponding TMT tag (5 mg tag resuspended in 256 μL acetonitrile), vortexed, and incubated at room temperature for 1 hour. TMT labeling was quenched with the addition of hydroxylamine (5 μL 5% solution in H2O) and incubated for 15 minutes at room temperature. Samples were then acidified with 5 μL formic acid, combined and dried using a SpeedVac. Samples were desalted via Sep-Pak and then high pH fractionated.
Data processing: Cysteine engagement ratios (probe vs DMSO) were calculated for each peptide-spectra match by dividing each TMT reporter ion intensity by the average intensity for the channels corresponding to DMSO treatment. Peptide-spectra matches were then grouped based on protein ID and residue number (e.g., PSME1 C22), excluding peptides with summed reporter ion intensities for the DMSO channels <10,000, coefficient of variation for DMSO channels >0.5, and non-tryptic peptide sequences. TMT reporter ion intensities were normalized to the median summed signal intensity across channels.
Filtering of cysteine data: Replicates were combined based on cell line and treatment condition (probe, concentration, duration) by averaging cysteine engagement ratios across all experiments.

% engagement NSD2_C1018	Structure (SMILES)
67%	C=CC(=O)N1C[C@H](c2ccc(Br)cc2)[C@H]1C(=O)Nc1cccc2cccnc12 [MY-3B, (2S,3S)-1-acryloyl-3-(4-bromophenyl)-N-(quinolin-8-yl)azetidine-2-carboxamide]
43.75%	C=CC(=O)N1C[C@H](c2ccc(Br)cc2)[C@@H]1C(=O)Nc1cccc2cccnc12 [MY-1B, (2R,3S)-1-acryloyl-3-(4-bromophenyl)-N-(quinolin-8-yl)azetidine-2-carboxamide]
36.75%	C=CC(=O)N1C[C@H](c2ccc(Br)cc2)[C@H]1C(=O)Nc1cccc2cccnc12 [MY-3A, (2S,3S)-1-acryloyl-3-(4-bromophenyl)-N-(quinolin-8-yl)azetidine-2-carboxamide]
16.5%	C=CC(=O)N1C[C@@H](c2ccc(Br)cc2)[C@H]1C(=O)Nc1cccc2cccnc12 [MY-1A, (2S,3R)-1-acryloyl-3-(4-bromophenyl)-N-(quinolin-8-yl)azetidine-2-carboxamide]
